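These data come from cells grown in 96-well plates and exposed to compound for 48 hours at five concentrations. The concentration for 50% growth inhibition is given as GI50.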 Active and inactive are the calls of the source. Rule as the data show it: active = GI50 up to about 1.1 µM and inactive = higher. Bridge positions count the residues as written; N and C are the ends. Peptide text beside a SMILES is read from it. * marks the point of attachment. Cbz = O=C(OCc1ccccc1)*
Tests used:
Test in all cases: growth of human tumour cells (NCI), 48 h
[1] = test system: M14
[2] = test system: HT-29
[3] = test system: KM-20L2
[4] = test system: TK-10
[5] = test system: SK-MEL-2
[6] = test system: SW-620
[7] = test system: SF-539
[8] = test system: HCT-15
[9] = test system: MOLT-4
[10] = test system: UO-31
[11] = test system: HOP-62
[12] = test system: ACHN
[13] = test system: SNB-75
[14] = test system: NCI-H460
[15] = test system: MDA-MB-435
[16] = test system: MDA-N
[17] = test system: NCI-H226
[18] = test system: DU-145
[19] = test system: MCF7
[20] = test system: Hs-578T

CCCCCCCC(=O)OCC1OC(n2cc(F)c(=O)[nH]c2=O)C(N)C(OC(=O)CCCCCCC)C1O (stereo unspecified)
GI50 [1]: 17.9 µM (inactive) | GI50 [2]: 19.3 µM (inactive) | GI50 [3]: 18.9 µM (inactive) | GI50 [4]: 23.4 µM (inactive) | GI50 [5]: 18.8 µM (inactive) | GI50 [6]: 18.4 µM (inactive) | GI50 [7]: 20.5 µM (inactive) | GI50 [8]: 18.5 µM | GI50 [9]: 15.5 µM (inactive) | GI50 [10]: 19.5 µM (inactive) | GI50 [11]: 18.6 µM (inactive) | GI50 [12]: 20.2 µM (inactive) | GI50 [13]: 15 µM (inactive) | GI50 [14]: 19.4 µM (inactive)

O=C(CSc1nc(O)nc2[nH]cnc12)Nc1ccccc1
GI50 [1]: > 100 µM (inactive) | GI50 [2]: > 100 µM (inactive) | GI50 [4]: > 100 µM (inactive) | GI50 [15]: 53.1 µM (inactive) | GI50 [16]: 57.5 µM (inactive) | GI50 [17]: 37.1 µM (inactive) | GI50 [5]: > 100 µM (inactive) | GI50 [6]: 66.4 µM (inactive) | GI50 [7]: 26.2 µM (inactive) | GI50 [8]: 61.9 µM | GI50 [9]: 93.5 µM (inactive) | GI50 [10]: > 100 µM (inactive) | GI50 [18]: > 100 µM (inactive) | GI50 [19]: 44.6 µM (inactive) | GI50 [11]: 52.8 µM (inactive) | GI50 [12]: > 100 µM (inactive) | GI50 [13]: > 100 µM (inactive) | GI50 [14]: > 100 µM (inactive) | GI50 [20]: 75 µM (inactive)

[N-]=[N+]=Nc1ccc(CNc2cc(=O)[nH]c(=O)[nH]2)cc1
GI50 [1]: > 100 µM (inactive) | GI50 [2]: > 100 µM (inactive) | GI50 [4]: > 100 µM (inactive) | GI50 [15]: > 49.2 µM (inactive) | GI50 [16]: > 100 µM (inactive) | GI50 [17]: > 100 µM (inactive) | GI50 [5]: > 100 µM (inactive) | GI50 [6]: > 64.1 µM (inactive) | GI50 [7]: > 100 µM (inactive) | GI50 [8]: > 100 µM | GI50 [9]: > 100 µM (inactive) | GI50 [10]: > 100 µM (inactive) | GI50 [18]: > 100 µM (inactive) | GI50 [19]: > 100 µM (inactive) | GI50 [11]: > 100 µM (inactive) | GI50 [12]: > 100 µM (inactive) | GI50 [13]: > 100 µM (inactive) | GI50 [14]: > 100 µM (inactive) | GI50 [20]: > 100 µM (inactive)

O=[N+]([O-])c1ncc(N(CCO)CCO)s1
GI50 [1]: 34.8 µM (inactive) | GI50 [2]: 49.7 µM (inactive) | GI50 [4]: 34.9 µM (inactive) | GI50 [15]: 34.8 µM (inactive) | GI50 [16]: 30.3 µM (inactive) | GI50 [17]: > 100 µM (inactive) | GI50 [5]: 21.6 µM (inactive) | GI50 [6]: 33.3 µM (inactive) | GI50 [7]: 14.4 µM (inactive) | GI50 [8]: 33.3 µM | GI50 [9]: 36.6 µM (inactive) | GI50 [10]: 43.1 µM (inactive) | GI50 [18]: 65.9 µM (inactive) | GI50 [19]: 37 µM (inactive) | GI50 [11]: 42.9 µM (inactive) | GI50 [12]: 37.7 µM (inactive) | GI50 [13]: 30.8 µM (inactive) | GI50 [14]: 61.2 µM (inactive) | GI50 [20]: 32.1 µM (inactive)

CCN(CC)CCCC(C)Nc1c2cc(OC)cc(C)c2nc2c(C)c(Cl)ccc12 (stereo unspecified)
GI50 [1]: 2.02 µM (inactive) | GI50 [2]: 1.62 µM (inactive) | GI50 [3]: 1.86 µM (inactive) | GI50 [4]: 1.73 µM (inactive) | GI50 [17]: 1.82 µM (inactive) | GI50 [5]: 1.87 µM (inactive) | GI50 [6]: 1.85 µM (inactive) | GI50 [8]: 1.78 µM | GI50 [9]: 1.74 µM (inactive) | GI50 [10]: 1.71 µM (inactive) | GI50 [11]: 1.66 µM (inactive) | GI50 [12]: 1.69 µM (inactive) | GI50 [13]: 1.68 µM (inactive) | GI50 [14]: 1.8 µM (inactive)

CN(C)CCN1CCc2c([nH]c3ccccc23)C1c1cccnc1 (stereo unspecified)
GI50 [1]: > 100 µM (inactive) | GI50 [2]: > 100 µM (inactive) | GI50 [3]: > 100 µM (inactive) | GI50 [4]: > 100 µM (inactive) | GI50 [6]: > 100 µM (inactive) | GI50 [7]: > 100 µM (inactive) | GI50 [8]: > 100 µM | GI50 [9]: > 100 µM (inactive) | GI50 [10]: 40.9 µM (inactive) | GI50 [11]: > 100 µM (inactive) | GI50 [12]: 23 µM (inactive) | GI50 [13]: 61.1 µM (inactive) | GI50 [14]: > 100 µM (inactive)

CNC(=O)C1CCCCNC(=O)CCC(NC(=O)OCc2ccccc2)C(=O)N1 (stereo not drawn) (Cbz-Glu-Lys-NHMe; lactam 1-2; configuration not given here)
GI50 [1]: > 100 µM (inactive) | GI50 [2]: > 100 µM (inactive) | GI50 [4]: > 100 µM (inactive) | GI50 [15]: > 100 µM (inactive) | GI50 [16]: > 100 µM (inactive) | GI50 [17]: > 100 µM (inactive) | GI50 [5]: > 100 µM (inactive) | GI50 [6]: > 100 µM (inactive) | GI50 [7]: > 100 µM (inactive) | GI50 [8]: > 100 µM | GI50 [9]: > 100 µM (inactive) | GI50 [10]: > 100 µM (inactive) | GI50 [18]: > 100 µM (inactive) | GI50 [19]: > 100 µM (inactive) | GI50 [11]: > 100 µM (inactive) | GI50 [12]: > 100 µM (inactive) | GI50 [13]: > 100 µM (inactive) | GI50 [14]: > 100 µM (inactive) | GI50 [20]: > 100 µM (inactive)

CC(C)[C@]12O[C@H]1[C@@H]1O[C@]13[C@]1(O[C@H]1C[C@H]1C4=C(CC[C@@]13C)C(=O)OC4)[C@@H]2O [TRIPTOLIDE]
GI50 [1]: < 0.0136 µM (active) | GI50 [2]: 0.0083 µM (active) | GI50 [4]: < 0.014 µM (active) | GI50 [15]: 0.00693 µM (active) | GI50 [16]: 0.00759 µM (active) | GI50 [17]: 0.0216 µM (active) | GI50 [5]: 0.00643 µM (active) | GI50 [6]: 0.0141 µM (active) | GI50 [7]: 0.00745 µM (active) | GI50 [8]: 0.014 µM | GI50 [9]: 0.00764 µM (active) | GI50 [10]: 0.0124 µM (active) | GI50 [18]: 0.0244 µM (active) | GI50 [19]: 0.00427 µM (active) | GI50 [11]: 0.00701 µM (active) | GI50 [12]: 0.00679 µM (active) | GI50 [13]: 0.0101 µM (active) | GI50 [14]: 0.00527 µM (active) | GI50 [20]: 0.015 µM (active)
